The values below come from paper PMC10582583, “The novel cyclophilin inhibitor C105SR reduces hepatic ischaemia–reperfusion injury via mitoprotection” (JHEP Reports, 2023).

The term IC50 denotes the concentration that gives 50% inhibition. A high value points to a need for much substance.

Chain of CypD (P30405 30-207): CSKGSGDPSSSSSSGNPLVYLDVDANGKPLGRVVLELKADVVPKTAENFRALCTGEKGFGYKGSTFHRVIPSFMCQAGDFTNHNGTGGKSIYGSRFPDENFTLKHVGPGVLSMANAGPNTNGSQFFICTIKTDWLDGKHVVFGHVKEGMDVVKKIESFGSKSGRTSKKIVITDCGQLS

This test concerns the target CypD (Homo sapiens, UniProt P30405). Kind of test: CypD PPIase activity, chymotrypsin-coupled assay. Type of test: biochemical. Particulars: Table 1.
In turn, `CSc1ccccc1C1CCCN1C(=O)C(NC(=O)NCc1ccc(N)cc1)C1CCCCC1` (stereo not drawn) [Compound C71, 1-(4-aminobenzyl)-3-(1-cyclohexyl-2-(2-(2-(methylthio)phenyl)pyrrolidin-1-yl)-2-oxoethyl)urea] came in with a half-inhibitory concentration (IC50) of 790 ± 210 nM.

As to `CSc1ccccc1C1CCCN1C(=O)C(NC(=O)NC(C)c1ccc(N)c(F)c1)c1ccccc1` (stereo not drawn) [Compound C101, 1-(1-(4-amino-3-fluorophenyl)ethyl)-3-(2-(2-(2-(methylthio)phenyl)pyrrolidin-1-yl)-2-oxo-1-phenylethyl)urea], it took 400 ± 190 nM to reach half-maximal inhibition (IC50). Take `COc1ccc(OC)c(C(NC(=O)NCc2ccc(N)cc2)C(=O)N2CCCC2c2cccc3ccsc23)c1` (stereo not drawn) [Compound C108, 1-(4-aminobenzyl)-3-(2-(2-(benzo[b]thiophen-7-yl)pyrrolidin-1-yl)-1-(2,5-dimethoxyphenyl)-2-oxoethyl)urea]: the IC50 turned out to be 480 ± 230 nM. For `COc1cc(OC)c(C(NC(=O)NCc2ccc(N)cc2)C(=O)N2CCCC2c2cccc3ccsc23)cc1Br` (stereo not drawn) [Compound C112, 1-(4-aminobenzyl)-3-(2-(2-(benzo[b]thiophen-7-yl)pyrrolidin-1-yl)-1-(5-bromo-2,4-dimethoxyphenyl)-2-oxoethyl)urea], the IC50 worked out at 480 ± 40 nM.

For the compound `CSc1ccccc1C1CCCN1C(=O)C(NC(=O)NCC1CC2(CNC2)C1)c1ccccc1` (stereo not drawn) [Compound C119, 1-((2-azaspiro[3.3]heptan-6-yl)methyl)-3-(2-(2-(2-(methylthio)phenyl)pyrrolidin-1-yl)-2-oxo-1-phenylethyl)urea], the IC50 turned out to be 150 ± 30 nM. This IC50 is about 3.2-fold lower than that of the compound before.

With `COc1ccc(Br)cc1C(NC(=O)NC(C)c1ccc(N)c(F)c1)C(=O)N1CCCC1c1ccccc1SC` (stereo not drawn) [Compound C123, 1-(1-(4-amino-3-fluorophenyl)ethyl)-3-(1-(5-bromo-2-methoxyphenyl)-2-(2-(2-(methylthio)phenyl)pyrrolidin-1-yl)-2-oxoethyl)urea], inhibition was half-maximal at 1260 ± 370 nM (IC50). Compared with the last compound, the IC50 is about 8.4-fold higher. The figure for `CSc1ccccc1C1CCCN1C(=O)C(NC(=O)NCc1cccc2c1OCCO2)c1ccccc1` (stereo not drawn) [Compound C129, 1-((2,3-dihydrobenzo[b][1,4]dioxin-5-yl)methyl)-3-(2-(2-(2-(methylthio)phenyl)pyrrolidin-1-yl)-2-oxo-1-phenylethyl)urea] is 260 ± 70 nM; for `CSc1ccccc1C1CCCN1C(=O)C(NC(=O)NCc1cccc2ccsc12)c1ccccc1` (stereo not drawn) [Compound C142, 1-(benzo[b]thiophen-7-ylmethyl)-3-(2-(2-(2-(methylthio)phenyl)pyrrolidin-1-yl)-2-oxo-1-phenylethyl)urea] it is 420 ± 100 nM; for `COc1ccc(OC)c(C(NC(=O)NCc2cccc3[nH]ccc23)C(=O)N2CCCC2c2ccccc2SC)c1` (stereo not drawn) [Compound C170, 1-((1H-indol-4-yl)methyl)-3-(1-(2,5-dimethoxyphenyl)-2-(2-(2-(methylthio)phenyl)pyrrolidin-1-yl)-2-oxoethyl)urea] it is 1050 ± 720 nM. In turn, `COc1ccc(OC)c(C(NC(=O)NCc2cccc3[nH]ncc23)C(=O)N2CCCC2c2ccccc2SC)c1` (stereo not drawn) [Compound C171, 1-((1H-indazol-4-yl)methyl)-3-(1-(2,5-dimethoxyphenyl)-2-(2-(2-(methylthio)phenyl)pyrrolidin-1-yl)-2-oxoethyl)urea] came in with a 50% inhibitory concentration (IC50) of 340 ± 130 nM. In turn, `CSc1ccccc1C1CCCN1C(=O)C(NC(=O)NCc1cccc2[nH]ccc12)c1ccccc1` (stereo not drawn) [Compound C172, 1-((1H-indol-4-yl)methyl)-3-(2-(2-(2-(methylthio)phenyl)pyrrolidin-1-yl)-2-oxo-1-phenylethyl)urea] came in with an IC50 of 210 ± 70 nM. `CCNC(=O)N1CCCc2c(CNC(=O)NC(C(=O)N3CCCC3c3ccccc3SC)c3ccccc3)cccc21` (stereo not drawn) [Compound C177, N-ethyl-5-((3-(2-(2-(2-(methylthio)phenyl)pyrrolidin-1-yl)-2-oxo-1-phenylethyl)ureido)methyl)-3,4-dihydroquinoline-1(2H)-carboxamide] came in with an IC50 of 490 ± 320 nM.
